From article PMC9394284, “Discovery of Novel Dual Adenosine A2A and A1 Receptor Antagonists with 1H-Pyrazolo[3,4-d]pyrimidin-6-amine Core Scaffold as Anti-Parkinson’s Disease Agents” (Pharmaceuticals, 2022)
Where two headings read alike, the source gives them in different places.

Columns and labels:
hA2A receptors = molecular target: T1, hA2A receptors (Homo sapiens, UniProt P29274); test: radioligand binding to human A2A receptors, HEK-293 membranes
T1 construct: purchased PerkinElmer RBHA2AM
Procedure: The binding affinities of synthesized compounds to human A2A receptors (hA2AR) were measured by assessing competitive binding of ligands to radioligand […] using membrane preparations of human recombinant HEK-293 cells expressing human A2A receptors.
The radioligand-binding assays for adenosine receptors were performed at Eurofins Discovery Services (Panlabs, Taiwan). Briefly, stock solutions of the compounds were prepared in DMSO and further diluted with the incubation buffer to the desired concentration. Final DMSO concentrations in the assay were 1.0%. […] Nonspecific binding was estimated in the presence of 100 μM R(-)-PIA. Membranes were filtered and washed 3 times and the filters were counted to determine specifically bound [^3H]DPCPX. Chemical compounds were screened at 10 μM. […] Nonspecific binding was estimated in the presence of 50.0 μM NECA. […] Nonspecific binding was estimated in the presence of 100 μM NECA. Membranes were filtered and washed 3 times and the filters were counted to determine [^3H]MRS1754 specifically bound. […] Nonspecific binding was estimated in the presence of 1.0 μM IB-MECA.
IC50 values were determined by a nonlinear, least-squares regression analysis using MathIQ^TM (ID Business Solutions Ltd., Guildford, UK). […] The Hill coefficient (nH), which defines the slope of the competitive binding curve, was calculated using MathIQ^TM.

[1] = pharmacokinetics and bioavailability in mouse plasma; type: in vivo, Crl:CD-1 mice
Procedure: Male Crl:CD-1 mice of 9~10 weeks of age were purchased from Charles River Laboratories, USA and maintained at standard food and water ad libitum in temperature-controlled room with 12 h on-off light cycle before the experiment. All procedures described were reviewed and approved by the Institutional Animal Care and Use Committee (IACUC) at Frontage Laboratories Inc. For PO dosing, mice were given 11o dissolved in DMSO: PEG400 (1:3, v:v) via gavage. For IV dosing, 11o solubilized in DMSO: PEG400: saline (1:3:6, v:v) were injected into tail veins at dose volume of 1 mL/kg. For IN dosing, 11o solubilized in DMSO and 25 μL of the appropriate dosing solution was placed near the nares to allow animal to inhale the dose. Three mice were sampled from each group for each blood and brain collection time point. Time points are 0.5, 1, 2, 4, 8, 24 h for PO and IN dosing and 0.083, 1, 2, 4, 8 and 24 h for IV dosing. Mice were euthanized by terminal retro-orbital blood collection under isoflurane anesthesia, followed by opening of the thoracic cavity per facility SOPs. A target volume of 1 mL was collected into tubes containing K3EDTA anti-coagulant, inverted several times and held on wet ice until centrifuged under refrigeration (set at 5 °C for 10 min at 2000× g). Resulting plasma were stored in a freezer set to maintain −70 °C until analyzed for 11o concentration. Brain was removed from each animal and weighed following termination, snap frozen and stored until later use. Plasma and brain PK analysis was conducted using WinNolin Version 6.2.1 (Pharsight, Mountain View, CA, USA), operating as a validated software system. Noncompartmental analysis was conducted using the extravascular administration model for oral dosing and the IV bolus model for IV dosing. The peak plasma and brain concentration, time to achieve peak plasma concentration, half-life, and area under the plasma concentration-time curve (Cmax, Tmax, T1/2 and AUC) were calculated from mean plasma concentrations for each sampling time/dose group for 11o. Nominal blood collection times were used for calculation of PK parameters. Dose proportionality was assessed, and bioavailability was calculated for PO dosing.

[2] = metabolic stability in cryopreserved monkey hepatocytes
Procedure: (§1) Metabolic stability of 11o was determined in cryopreserved hepatocytes from mice, rats, dogs, monkeys and human according to the SOPs of Frontage Laboratories Inc. Briefly, cryopreserved hepatocytes for pre-clinical animals and for human (BioIVT, Westbury, NY, USA) were thawed in a 37 °C water bath with gentle shaking until ice had almost melted. The suspensions were immediately transferred to a centrifuge tube (50 mL) containing pre-warmed thawing media at 37 °C with gentle handshaking to prevent the cells from settling. Cell suspensions were centrifuged at 50× g and 4 °C for 5 min. The supernatant was discarded and the pellets were resuspended in prewarmed incubation media (5 mL) at 37 °C. The percentage of viable cells in the suspension was determined by Trypan blue staining method to ensure viability of ≥70 %. […] The samples were centrifuged and aliquots of the supernatant were analyzed for parent compounds by LC/MS/MS using suitable multiple reaction monitoring (MRM) transitions. […] The disappearance of 11o and midazolam was monitored by LC/MS/MS (MRM) analysis of the hepatocyte extracts at each time point. The peak area ratio of the analyte to internal standard was obtained for each sample and the rate of disappearance of 11o was assessed by comparing the peak area ratios at various time points to the peak area ratio obtained at t = 0. The t1/2 is obtained (using the linear portion of semi-log plot of the area ratio vs. time) and the CLint values determined using well-stirred model.

[3] = metabolic stability in cryopreserved dog hepatocytes; conditions: dog hepatocytes; 1 μM 11o; little/no compound depletion
Procedure: as §1

[4] = average of duplicate experiments
[5] = male, Crl:CD-1, inhaled or intranasal, mouse plasma, 10 mg/kg IN
[6] = male, Crl:CD-1, mouse plasma, 1 mg/kg IV
[7] = male, Crl:CD-1, mouse plasma, 1 mg/kg PO
[8] = male, Crl:CD-1, mouse plasma, 3 mg/kg PO
[9] = male, Crl:CD-1, mouse plasma, 10 mg/kg PO

T1 sequence (P29274 whole entry): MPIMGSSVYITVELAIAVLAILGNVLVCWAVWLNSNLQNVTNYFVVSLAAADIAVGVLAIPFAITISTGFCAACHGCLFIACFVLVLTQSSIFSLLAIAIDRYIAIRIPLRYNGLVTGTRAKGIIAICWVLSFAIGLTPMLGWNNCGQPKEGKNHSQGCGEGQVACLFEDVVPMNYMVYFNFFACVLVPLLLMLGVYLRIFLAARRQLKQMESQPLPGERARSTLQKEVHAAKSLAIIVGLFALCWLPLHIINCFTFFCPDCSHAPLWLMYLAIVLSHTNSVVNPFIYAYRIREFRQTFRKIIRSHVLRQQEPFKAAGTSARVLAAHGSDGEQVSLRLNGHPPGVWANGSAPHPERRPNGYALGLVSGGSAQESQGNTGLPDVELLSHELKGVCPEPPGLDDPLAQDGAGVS

With Cc1cc(Cn2ncc3c(-c4cccc(C#N)c4F)nc(N)nc32)ccc1N [11o, 3-(6-Amino-1-(4-amino-3-methylbenzyl)-1H-pyrazolo[3,4-d]pyrimidin-4-yl)-2-fluorobenzonitrile] the “nH (Hill coefficient), A2A” value (hA2A receptors) was 0.79, the IC50 (hA2A receptors; [4]) was 24 nM and the Ki (hA2A receptors; [4]) was 13.3 nM. It also gave a Tmax ([1]; male, Crl:CD-1, inhaled or intranasal, mouse plasma, 1 mg/kg IN) of 0.5 h, a Tmax ([1]; male, Crl:CD-1, inhaled or intranasal, mouse plasma, 3 mg/kg IN) of 0.5 h and a Tmax [1, 5] of 0.5 h. It also gave a half-life [1, 5] of 7.4 h, an AUC(0-t) ([1]; male, Crl:CD-1, mouse, plasma, inhaled or intranasal, 1 mg/kg, mouse plasma, 1 mg/kg IN) of 74.9 ng·h/mL and a Cmax ([1]; male, Crl:CD-1, mouse, plasma, inhaled or intranasal, 1 mg/kg, mouse plasma, 1 mg/kg IN, read-out: Cmax) of 23.3 ng/mL. For the same molecule, the AUC(0-t) ([1]; male, Crl:CD-1, mouse, plasma, inhaled or intranasal, 3 mg/kg, mouse plasma, 3 mg/kg IN) was 183 ng·h/mL, the Cmax ([1]; male, Crl:CD-1, mouse, plasma, inhaled or intranasal, 3 mg/kg, mouse plasma, 3 mg/kg IN, read-out: Cmax) was 53.9 ng/mL and the AUC(0-t) ([1]; male, Crl:CD-1, mouse, plasma, inhaled or intranasal, 10 mg/kg, mouse plasma, 10 mg/kg IN) was 444 ng·h/mL. The Cmax ([1]; male, Crl:CD-1, mouse, plasma, inhaled or intranasal, 10 mg/kg, mouse plasma, 10 mg/kg IN, read-out: Cmax) was 88.5 ng/mL, the AUC(0-t) ([1]; male, Crl:CD-1, mouse, plasma, iv, 1 mg/kg, mouse plasma, 1 mg/kg IV) was 332 ng·h/mL and the Cmax ([1]; male, Crl:CD-1, mouse, plasma, iv, 1 mg/kg, mouse plasma, 1 mg/kg IV, read-out: Cmax) was 459 ng/mL. The AUC(0-t) ([1]; male, Crl:CD-1, mouse, plasma, po, 1 mg/kg, mouse plasma, 1 mg/kg PO) was 176 ng·h/mL, the Cmax ([1]; male, Crl:CD-1, mouse, plasma, po, 1 mg/kg, mouse plasma, 1 mg/kg PO, read-out: Cmax) was 36.8 ng/mL and the AUC(0-t) ([1]; male, Crl:CD-1, mouse, plasma, po, 3 mg/kg, mouse plasma, 3 mg/kg PO) was 577 ng·h/mL. It also gave a Cmax ([1]; male, Crl:CD-1, mouse, plasma, po, 3 mg/kg, mouse plasma, 3 mg/kg PO, read-out: Cmax) of 81.4 ng/mL, an AUC(0-t) ([1]; male, Crl:CD-1, mouse, plasma, po, 10 mg/kg, mouse plasma, 10 mg/kg PO) of 2250 ng·h/mL and a Cmax ([1]; male, Crl:CD-1, mouse, plasma, po, 10 mg/kg, mouse plasma, 10 mg/kg PO, read-out: Cmax) of 367 ng/mL. For the same molecule, the bioavailability ([1]; male, Crl:CD-1, plasma, other: intranasal (IN), placed near the nares, mouse, IN, 1, 3 and 10 mg/kg, depending on the dose, read-out: Bioavailability after IN administration) was 13.4 to 22.6%, the Tmax [1, 6] was 0.083 h and the half-life [1, 6] was 3.95 h. The Tmax [1, 7] was 2 h, the half-life [1, 7] was 4.38 h and the Tmax [1, 8] was 2 h. For the same molecule, the half-life [1, 8] was 3.66 h, the Tmax [1, 9] was 2 h and the half-life [1, 9] was 5.69 h. It also gave a BA ([1]; mouse plasma, 1 mg/kg IN, relative to AUClast of 1 mg/kg IV) of 22.6%, a BA ([1]; mouse plasma, 1 mg/kg IV (reference for the calculation)) of 100% and a BA ([1]; mouse plasma, 1 mg/kg PO, relative to AUClast of 1 mg/kg IV, 1 mg/kg) of 53%. For the same molecule, the BA ([1]; mouse plasma, 3 mg/kg IN, relative to AUClast of 1 mg/kg IV) was 18.4%, the Cmax ([1]; mouse plasma, 3 mg/kg PO, 3 mg/kg) was 81.3 ng/mL and the BA ([1]; mouse plasma, 3 mg/kg PO, relative to AUClast of 1 mg/kg IV) was 57.9%. It also gave a BA ([1]; mouse plasma, 10 mg/kg IN, relative to AUClast of 1 mg/kg IV) of 13.4%, an AUClast ([1]; mouse plasma, 10 mg/kg PO, 10 mg/kg) of 2249 ng·h/mL and a BA ([1]; mouse plasma, 10 mg/kg PO, relative to AUClast of 1 mg/kg IV) of 67.7%. The CLint scaled at 1 μM ([2]; cynomolgus monkey, cryopreserved hepatocytes in suspension) was 20.1 mL/min/kg, the “Intrinsic Clearance” value ([2]; monkey hepatocytes, 1 μM 11o) was 0.00558 mL/min/10^6 Cells and the half-life at 1 μM ([2]; monkey, cryopreserved hepatocytes in suspension) was 2.07 h. For the same molecule, the “stability in dog hepatocytes (in words)” value [3] was “stable in dog hepatocytes”.
